# According to patent US20200360381A1, “COMPOUNDS FOR TREATING DENGUE VIRUS INFECTION AND OTHER VIRAL INFECTIONS” (priority 2017, published 2020):
# Tested on: not listed separately
# Experiment: Dynamic light scattering particle size
# Assay type: physicochemical
# Conditions: DLS, with detergent, 40 μM compound
row,SMILES,Particle size (with Tween 20)
1,COC(=O)c1ccc(Cl)cc1NC(=O)CSc1ncc(S(=O)(=O)c2ccc(Br)cc2)c(=O)[nH]1 [Compound C200-5340],7.5 (40 μM) nm
2,Oc1ccc(C2NCCc3c2[nH]c2ccc(Cl)cc32)cc1O (stereo not shown) [Compound C200-9144],8.3 (40 μM) nm
3,CCCc1nn2c(=O)cc(CSc3nc(-c4ccc(C)cc4)nc4cc(=O)[nH]n34)nc2s1 [Compound G199-0398],7.2 (40 μM) nm

# Same assay, conditions: DLS, without detergent, 40 μM compound
row,SMILES,Particle size (no Tween)
1,COC(=O)c1ccc(Cl)cc1NC(=O)CSc1ncc(S(=O)(=O)c2ccc(Br)cc2)c(=O)[nH]1 [Compound C200-5340],966 (40 μM) nm
2,Oc1ccc(C2NCCc3c2[nH]c2ccc(Cl)cc32)cc1O (stereo not shown) [Compound C200-9144],1443 (40 μM) nm
3,CCCc1nn2c(=O)cc(CSc3nc(-c4ccc(C)cc4)nc4cc(=O)[nH]n34)nc2s1 [Compound G199-0398],268 (40 μM) nm

# Tested on: DENV2
# Experiment: Antiviral activity (viral infectivity) assay, single-cycle viral yield
# Assay type: cell-based, Dengue virus 2
# Conditions: Dengue virus, DENV2, read-out: IC90 versus DENV2
row,SMILES,IC90 [µM]
1,Oc1ccc(C2NCCc3c2[nH]c2ccc(Cl)cc32)cc1O (stereo not shown) [Compound C200-9144],3

# Same assay, conditions: Dengue virus, DENV2; concentration that reduces single-cycle viral yield by 10-fold; read-out: IC90 (DENV2 infectivity)
row,SMILES,IC90 [µM]
1,COC(=O)c1ccc(Cl)cc1NC(=O)CSc1ncc(S(=O)(=O)c2ccc(Br)cc2)c(=O)[nH]1 [Compound C200-5340],7.2 ± 3.5
2,Oc1ccc(C2NCCc3c2[nH]c2ccc(Cl)cc32)cc1O (stereo not shown) [Compound C200-9144],1.2 ± 0.4
3,CCCc1nn2c(=O)cc(CSc3nc(-c4ccc(C)cc4)nc4cc(=O)[nH]n34)nc2s1 [Compound G199-0398],8.8 ± 0.2

# Tested on: not listed separately
# Experiment: Cytotoxicity assay (CellTiter-Glo)
# Conditions: hamster
# Protocol: BHK21 cells (MEM with 2% FBS) were incubated with varying concentrations of inhibitor in a 96-well white plate for 24 hours at 37° C. and 5% CO2. CellTiter-Glo (Promega) solution was used to measure viability following the manufacturer's instructions. Luminescence was measured using a Biotek Synergy plate reader. […] The maximum concentration tested was 100 μM.
row,SMILES,CC50 at 24 h [µM]
1,COC(=O)c1ccc(Cl)cc1NC(=O)CSc1ncc(S(=O)(=O)c2ccc(Br)cc2)c(=O)[nH]1 [Compound C200-5340],> 50
2,Oc1ccc(C2NCCc3c2[nH]c2ccc(Cl)cc32)cc1O (stereo not shown) [Compound C200-9144],> 50
3,CCCc1nn2c(=O)cc(CSc3nc(-c4ccc(C)cc4)nc4cc(=O)[nH]n34)nc2s1 [Compound G199-0398],68

# Target: T1, DENV2 sE2 (Dengue virus type 2, UniProt P14340)
# Experiment: biochemical
# Assay type: binding, Dengue virus 2
# Conditions: not given
row,SMILES,Kd [µM]
1,COC(=O)c1ccc(Cl)cc1NC(=O)CSc1ncc(S(=O)(=O)c2ccc(Br)cc2)c(=O)[nH]1 [Compound C200-5340],7.1
2,Oc1ccc(C2NCCc3c2[nH]c2ccc(Cl)cc32)cc1O (stereo not shown) [Compound C200-9144],1.2

# Target: T1, DENV2 sE2
# Experiment: biochemical
# Assay type: binding, Dengue virus 2
# Conditions: IC50 (AlphaScreen), concentration that inhibits 50% luminescence signal in the AlphaScreen competition assay; Table 1
row,SMILES,IC50 [µM]
1,COC(=O)c1ccc(Cl)cc1NC(=O)CSc1ncc(S(=O)(=O)c2ccc(Br)cc2)c(=O)[nH]1 [Compound C200-5340],3 ± 1.1
2,Oc1ccc(C2NCCc3c2[nH]c2ccc(Cl)cc32)cc1O (stereo not shown) [Compound C200-9144],2.6 ± 1.3
3,CCCc1nn2c(=O)cc(CSc3nc(-c4ccc(C)cc4)nc4cc(=O)[nH]n34)nc2s1 [Compound G199-0398],7 ± 3

# Tested on: not listed separately
# Experiment: Mouse microsomal stability
# Conditions: mouse microsomes, T1/2 (mouse microsome), mouse microsomal stability
row,SMILES,half-life [h]
1,COC(=O)c1ccc(Cl)cc1NC(=O)CSc1ncc(S(=O)(=O)c2ccc(Br)cc2)c(=O)[nH]1 [Compound C200-5340],0.07
2,Oc1ccc(C2NCCc3c2[nH]c2ccc(Cl)cc32)cc1O (stereo not shown) [Compound C200-9144],0.927
3,CCCc1nn2c(=O)cc(CSc3nc(-c4ccc(C)cc4)nc4cc(=O)[nH]n34)nc2s1 [Compound G199-0398],1.18

# Same assay, conditions: mouse microsomes, stability half-life (text, printed Ti)
row,SMILES,half-life [h]
1,CCCc1nn2c(=O)cc(CSc3nc(-c4ccc(C)cc4)nc4cc(=O)[nH]n34)nc2s1 [Compound G199-0398],~1.17

# Tested on: VSV-eGFP
# Experiment: microbe, parasite or virus in culture
# Assay type: cell-based, vesicular stomatitis virus
# Conditions: not given
row,SMILES,inhibition of VSV-eGFP in counter screen
1,COC(=O)c1ccc(Cl)cc1NC(=O)CSc1ncc(S(=O)(=O)c2ccc(Br)cc2)c(=O)[nH]1 [Compound C200-5340],less potency
2,Oc1ccc(C2NCCc3c2[nH]c2ccc(Cl)cc32)cc1O (stereo not shown) [Compound C200-9144],less potency
3,CCCc1nn2c(=O)cc(CSc3nc(-c4ccc(C)cc4)nc4cc(=O)[nH]n34)nc2s1 [Compound G199-0398],strong inhibition efficiency

# Same assay, conditions: Vesicular stomatitis virus, 6 h, read-out: VSV 5 μM
row,SMILES,inhibition at 5 µM [%]
1,COC(=O)c1ccc(Cl)cc1NC(=O)CSc1ncc(S(=O)(=O)c2ccc(Br)cc2)c(=O)[nH]1 [Compound C200-5340],20
2,Oc1ccc(C2NCCc3c2[nH]c2ccc(Cl)cc32)cc1O (stereo not shown) [Compound C200-9144],76
3,CCCc1nn2c(=O)cc(CSc3nc(-c4ccc(C)cc4)nc4cc(=O)[nH]n34)nc2s1 [Compound G199-0398],33

# Same assay, conditions: Vesicular stomatitis virus, 6 h, read-out: VSV 10 μM
row,SMILES,inhibition at 10 µM [%]
1,COC(=O)c1ccc(Cl)cc1NC(=O)CSc1ncc(S(=O)(=O)c2ccc(Br)cc2)c(=O)[nH]1 [Compound C200-5340],51
2,Oc1ccc(C2NCCc3c2[nH]c2ccc(Cl)cc32)cc1O (stereo not shown) [Compound C200-9144],77
3,CCCc1nn2c(=O)cc(CSc3nc(-c4ccc(C)cc4)nc4cc(=O)[nH]n34)nc2s1 [Compound G199-0398],59
